pIC50: −log10 of the molar value. Structures can show the parent of a compound that is named as a salt.
Biological target: T1, Cloned Neurokinin Receptor Subtype 2 Human (Homo sapiens, UniProt P21452)
T1 construct: purchased Biosignal Packard; host or cells: CHO cells
T1 sequence (P21452 1-398): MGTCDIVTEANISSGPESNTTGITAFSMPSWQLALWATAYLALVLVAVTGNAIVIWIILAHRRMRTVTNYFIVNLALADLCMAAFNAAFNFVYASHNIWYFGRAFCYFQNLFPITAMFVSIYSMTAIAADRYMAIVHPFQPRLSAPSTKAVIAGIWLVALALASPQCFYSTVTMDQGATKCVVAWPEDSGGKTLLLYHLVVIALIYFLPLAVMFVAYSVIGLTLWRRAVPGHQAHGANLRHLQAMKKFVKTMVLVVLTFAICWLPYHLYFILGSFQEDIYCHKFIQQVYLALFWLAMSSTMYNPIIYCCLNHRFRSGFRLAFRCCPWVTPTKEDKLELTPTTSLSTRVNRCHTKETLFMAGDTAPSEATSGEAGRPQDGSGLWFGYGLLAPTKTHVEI
Experiment: NK-2 receptor-binding experiment ([3H]-SR48968, CHO cell membranes)
Conditions: Table 3; inhibition of [3H]-SR48968 (0.85 nM) binding, pseudo-Hill analysis
Description: 2. NK-2 Receptor-binding Experiment
Cloned Neurokinin Receptor Subtype 2 Human (CHO cells, Biosignal Packard), [^3H]-SR48968 (Amersham, final concentration 0.85 nM), and a test compound were mixed with 20 mM HEPES buffer, and the mixture was incubated for 50 minutes at 27° C. After completion of incubation, membrane components were collected by means of an automatic filtration apparatus (Brandel) onto a GF/C glass fiber filter (Whatman).
Before use, in order to prevent non-specific binding, the glass fiber filter had been pre-treated with 0.1% polyethylene imine solution for about 4 hours.
The filter employed to collect the membrane components was transferred to a plastic vial containing UltimaGold MV (5 mL), and measured by means of a liquid scintillation counter (Packard, 2000CA) in terms of the radioactivity.
Percent radioactive ligand-receptor binding inhibition of each test compound was calculated by use of the following equation, and IC50 (nM) was determined through pseudo-Hill analysis.
Percent inhibition (%)=[1−(C−A)/(B−A)]×100
A: Radioactivity attributed to non-specific binding
B: Radioactivity without test compound
C: Radioactivity with test compound

pIC50	SMILES
8.39	CN(CC(CCN1CCC2(CC1)c1ccccc1C[S@+]2[O-])(c1ccc(Cl)c(Cl)c1)N(C)C(=O)C(=O)N(C)c1ccccc1)C(=O)CC(F)(F)F (single isomer, unassigned) [Compound No. 10]
8.77	CN(CC(CCN1CCC2(CC1)NC(=O)Cc1ccccc12)(c1ccc(Cl)c(Cl)c1)N(C)C(=O)NC(c1ccccc1)c1ccccc1)C(=O)C(F)(F)F (stereo not shown) [Compound No. 3, N-{2-(3-benzhydryl-1-methylureido)-2-(3,4-dihydrodichlorophenyl)-4-{spiro[isoquinoline-1(2H),4′-piperidine]-3(4H)-one}-1′-yl-butyl}-2,2,2-trifluoro-N-methyl-acetamide hydrochloride]
8.14	CN(CC(CCN1CCC2(CC1)c1ccccc1C[S+]2[O-])(c1ccc(Cl)c(Cl)c1)N(C)C(=O)C(=O)Nc1ccccc1Cl)C(=O)CC(F)(F)F [Compound No. 9, N-(2-Chloro-phenyl)-N′-{1-(3,4-dichloro-phenyl)-1-{[methyl-(3,3,3-trifluoro-propionyl)-amino]-methyl}-3-{spiro[benzo(c)thiophene-1(3H),4′-piperidine]-(2S)-oxido}-1′-yl-propyl}-N′-methyl-oxalamide hydrochloride]
8.09	CN(CC(CCN1CCC2(CC1)c1ccccc1CS2(=O)=O)(c1ccc(Cl)c(Cl)c1)N(C)C(=O)NC(c1ccccc1)c1ccccc1)C(=O)C(F)F (stereo not shown) [Compound No. 11, N-[2-(3-Benzhydryl-1-methyl-ureido)-2-(3,4-dichloro-phenyl)-4-{spiro[benzo(c)thiophene-1(3H),4′-piperidine]-2,2-dioxido}-1′-yl-butyl]-2,2-difluoro-N-methyl-acetamide hydrochloride]
8.59	CN(CC(CCN1CCC2(CC1)c1ccccc1C[S+]2[O-])(c1ccc(Cl)c(Cl)c1)N(C)C(=O)c1ccccc1)C(=O)CC(F)(F)F [Compound No. 13, N-{1-(3,4-Dichloro-phenyl)-1-{[methyl-(3,3,3-trifluoro-propionyl)-amino]-methyl}-3-{spiro[benzo(c)thiophene-1(3H),4′-piperidine]-(2S)-oxido}-1′-yl-propyl}-N-methyl-benzamide hydrochloride]
9.47	CN(CC(CCN1CCC2(CC1)c1ccccc1C[S+]2[O-])(c1ccc(Cl)c(Cl)c1)N(C)C(=O)Cc1ccccc1)C(=O)CC(F)(F)F [Compound No. 14, N-[2-(3,4-Dichloro-phenyl)-2-(methyl-phenylacetyl-amino)-4-{spiro[benzo(c)thiophene-1(3H),4′-piperidine]-(2S)-oxido}-1′-yl-butyl]-3,3,3-trifluoro-N-methyl-propionamide hydrochloride]
9.02	CN(C[C@](CCN1CCC2(CC1)NC(=O)Cc1ccccc12)(c1ccc(Cl)c(Cl)c1)N(C)C(=O)c1ccccc1)C(=O)CC(F)(F)F [Compound No. 22, N-{1-(3,3,3-trifluoro-N-methylpropanamido)-2-(S)-(3,4-dichlorophenyl)-4-[3-oxo-3,4-dihydro-2H-spiro(isoquinoline-1,4′-piperidin)-1′-yl]butan-2-yl}-N-methylbenzamide hydrochloride]
8.77	CN(C[C@](CCN1CCC2(CC1)NC(=O)Cc1ccccc12)(c1ccc(Cl)c(Cl)c1)N(C)C(=O)c1ccccc1)C(=O)C(F)(F)F [Compound No. 23, N-{1-(2,2,2-trifluoro-N-methylacetamide)-2-(S)-(3,4-dichlorophenyl)-4-[3-oxo-3,4-dihydro-2H-spiro(isoquinoline-1,4′-piperidin)-1′-yl]butan-2-yl}-N-methylbenzamide hydrochloride]
8.54	CN(C[C@](CCN1CCC2(CC1)NC(=O)Cc1ccccc12)(c1ccc(Cl)c(Cl)c1)N(C)C(=O)c1ccc(C(F)(F)F)cc1)C(=O)C(F)(F)F [Compound No. 24, N-{1-(2,2,2-trifluoro-N-methylacetamide)-2-(S)-(3,4-dichlorophenyl)-4-[3-oxo-3,4-dihydro-2H-spiro(isoquinoline-1,4′-piperidin)-1′-yl]butan-2-yl}-N-methyl-4-trifluoromethyl-benzamide hydrochloride]
9.24	CCN(C(=O)C(=O)N(C)[C@](CCN1CCC2(CC1)c1ccccc1C[S@+]2[O-])(CN(C)C(=O)CC(F)(F)F)c1ccc(Cl)c(Cl)c1)c1ccccc1 [Compound No. 25, N^1-{1-(3,3,3-trifluoro-N-methylpropanamido)-2-(S)-(3,4-dichlorophenyl)-4-[spiro(benzo(c)thiophene-(2S)-oxido-1(3H),4′-piperidin)-1′-yl]butan-2-yl}-N^1-methyl-N^2-ethyl-N^2-phenyloxalamide hydrochloride]
9.07	CN(C[C@](CCN1CCC2(CC1)c1ccccc1C[S@+]2[O-])(c1ccc(Cl)c(Cl)c1)N(C)C(=O)c1ccccc1)C(=O)C(F)(F)F [Compound No. 26, N-{1-(2,2,2-trifluoro-N-methylacetamide)-2-(S)-(3,4-dichlorophenyl)-4-[spiro(benzo(c)thiophene-(2S)-oxido-1(3H),4′-piperidin)-1′-yl]butan-2-yl}-N-methylbenzamide hydrochloride]
8.17	CN(C[C@](CCN1CCC2(CC1)NC(=O)Cc1ccccc12)(c1ccc(Cl)c(Cl)c1)N(C)C(=O)C(=O)N(C)c1ccccc1)C(=O)CC(F)(F)F [Compound No. 27, N^1-{1-(3,3,3-trifluoro-N-methylpropanamido)-2-(S)-(3,4-dichlorophenyl)-4-[3-oxo-3,4-dihydro-2H-spiro(isoquinoline-1,4′-piperidin)-1′-yl]butan-2-yl}-N^1,N^2-dimethyl-N^2-phenyloxalamide hydrochloride]
8.59	CN(C[C@](CCN1CCC2(CC1)c1ccccc1CS2(=O)=O)(c1ccc(Cl)c(Cl)c1)N(C)C(=O)Cc1ccccc1)C(=O)CC(F)(F)F [Compound No. 28, N-(1-(3,3,3-trifluoro-N-methylpropanamido)-2-(S)-(3,4-dichlorophenyl)-4-[spiro(benzo(c)thiophene-2,2-dioxido-1(3H),4′-piperidin)-1′-yl]butan-2-yl}-N-methyl-phenylacetamide hydrochloride]
8.40	CN(C[C@](CCN1CCC2(CC1)NC(=O)Cc1ccccc12)(c1ccc(Cl)c(Cl)c1)N(C)C(=O)C(=O)Nc1ccccc1)C(=O)C(F)(F)F [Compound No. 29, N^1-{1-(2,2,2-trifluoro-N-methylacetamide)-2-(S)-(3,4-dichlorophenyl)-4-[3-oxo-3,4-dihydro-2H-spiro(isoquinoline-1,4′-piperidin)-1′-yl]butan-2-yl}-N^1-methyl-N^2-phenyloxalamide hydrochloride]
8.92	CN(C[C@](CCN1CCC2(CC1)c1ccccc1C[S@+]2[O-])(c1ccc(Cl)c(Cl)c1)N(C)C(=O)c1ccccc1F)C(=O)CC(F)(F)F [Compound No. 30, N-{1-(3,3,3-trifluoro-N-methylpropanamido)-2-(S)-(3,4-dichlorophenyl)-4-[spiro(benzo(c)thiophene-(2S)-oxido-1(3H),4′-piperidin)-1′-yl]butan-2-yl}-N-methyl-2-fluorobenzamide hydrochloride]
9.12	CN(C[C@](CCN1CCC2(CC1)c1ccccc1C[S@+]2[O-])(c1ccc(Cl)c(Cl)c1)N(C)C(=O)c1ccc(C(F)(F)F)cc1)C(=O)CC(F)(F)F [Compound No. 31, N-{1-(3,3,3-trifluoro-N-methylpropanamido)-2-(S)-(3,4-dichlorophenyl)-4-[spiro(benzo(c)thiophene-(2S)-oxido-1(3H),4′-piperidin)-1′-yl]butan-2-yl}-N-methyl-4-trifluoromethylbenzamide hydrochloride]
9.00	CC(C)C(=O)N(C)C[C@](CCN1CCC2(CC1)c1ccccc1C[S@+]2[O-])(c1ccc(Cl)c(Cl)c1)N(C)C(=O)c1ccccc1 [Compound No. 32, N-{1-(N-methylisobutylamide)-2-(S)-(3,4-dichlorophenyl)-4-[spiro(benzo(c)thiophene-(2S)-oxido-1(3H),4′-piperidin)-1′-yl]butan-2-yl}-N-methylbenzamide hydrochloride]
9.19	CC(C)C(=O)N(C)C[C@](CCN1CCC2(CC1)c1ccccc1C[S@+]2[O-])(c1ccc(Cl)c(Cl)c1)N(C)C(=O)C(=O)N(C)c1ccccc1 [Compound No. 33, N^1-{1-(N-methylisobutylamide)-2-(S)-(3,4-dichlorophenyl)-4-[spiro(benzo(c)thiophene-(2S)-oxido-1(3H), 41-piperidin)-1′-yl]butan-2-yl}-N^1,N^2-dimethyl-N^2-phenyloxalamide hydrochloride]

SMILES	pIC50
CCOC(=O)C(=O)N(C)C(CCN1CCC2(CC1)c1ccccc1C[C@@H]2O)(COCc1cc(OC)c(OC)c(OC)c1)c1ccc(Cl)c(Cl)c1 (mixture of isomers) [Compound No. 21, N-[1-(3,4-Dichloro-phenyl)-3-{spiro[((2S)-hydroxy)indan-1,4′-piperidine]}-1′-yl-1-(3,4,5-trimethoxy-benzyloxymethyl)-propyl]-N-methyl-oxamic acid ethyl ester hydrochloride]	8.06

Source: patent US7276511B2, “Benzylamine derivative” (Zeria Pharmaceutical Co., Ltd., priority 2003, dated 2007)
